Measurements taken from US10703733B2, “MCL-1 inhibitors” (Gilead Sciences, Inc., priority 2018, dated 2020).
Like-named read-outs stand apart in the source and are kept apart here.

Legend:
[1] = biological target: MCL-1/Bim interaction (recombinant human MCL-1 protein, residues 171-327; biotinylated human Bim peptide, residues 51-76) (Homo sapiens (Human), UniProt Q07820); test: MCL-1/Bim Binding AlphaLISA Assay; details: 0.0625 nM 6xHis-Mcl-1 (171-327), 0.0625 nM biotinylated-Bim peptide
In short: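 AlphaLISA with 0.0625 nM His-tagged MCL-1 and 0.0625 nM biotin-Bim peptide in 20 mM Hepes pH 7.5, 150 mM NaCl, 0.002% Brij 35, 1 mM DTT, 0.01% BSA. Compound preincubated 1 h with MCL-1, Bim added for 2 h, then acceptor and donor beads 1 h each.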

SKBR3 cells = test: SKBR3 Cell Viability Assay (CellTiter Glo); assay type: cell-based; details: CellTiter Glo luminescence, read-out: MCL-1 CV SKBR3 EC50
In short: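 SKBR3 cells (6,000/well) in McCoy 5A + 10% FBS exposed to serially diluted compound for 72 h at 37° C., 5% CO2. Viability by CellTiter Glo luminescence; % inhibition normalized to DMSO (negative) and 10 μM puromycin (positive).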

MCL-1/Bim interaction (recombinant human MCL-1 protein, residues 171-327; biotinylated human Bim peptide, residues 51-76), sequence (Q07820 171-327): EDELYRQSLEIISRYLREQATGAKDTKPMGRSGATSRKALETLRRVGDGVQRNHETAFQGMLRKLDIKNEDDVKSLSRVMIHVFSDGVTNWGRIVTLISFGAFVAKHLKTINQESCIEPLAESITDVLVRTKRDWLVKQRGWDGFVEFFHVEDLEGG

Row | Structure (SMILES) | IC50 [1] [nM] | EC50 (SKBR3 cells; Homo sapiens, SK-BR-3, 72 h) [nM] | EC50 (SKBR3 cells; 72 hours) [nM]
1 | CO[C@H]1/C=C/CCC[S@@](=O)(NC(=O)CCc2ccco2)=NC(=O)c2ccc3c(c2)N(C[C@@H]2CC[C@H]21)C[C@@]1(CCCc2cc(Cl)ccc21)CO3 [Example 88] | 1.5 | 2570 | 
2 | CCC(=O)N[S@]1(=O)=NC(=O)c2ccc3c(c2)N(C[C@@H]2CC[C@H]2[C@@H](OC)/C=C/CC[C@H]1CC)C[C@@]1(CCCc2cc(Cl)ccc21)CO3 [Example 64] | 5.2 |  | 5830
3 | CO[C@H]1/C=C/C[C@H](C)C[S@@](=O)(NC(=O)c2cnn(C(C)C)c2)=NC(=O)c2ccc3c(c2)N(C[C@@H]2CC[C@H]21)C[C@@]1(CCCc2cc(Cl)ccc21)CO3 [Example 123] | 0.071 | 114 | 
4 | CO[C@H]1/C=C/C[C@H](C)C[S@@](=O)(NC(=O)c2cc3c([nH]2)CCOC3)=NC(=O)c2ccc3c(c2)N(C[C@@H]2CC[C@H]21)C[C@@]1(CCCc2cc(Cl)ccc21)CO3 [Example 158] | 0.135 | 47.4 | 
5 | CO[C@H]1/C=C/CCC[S@@](=O)(NC(=O)NC2(C(F)(F)F)CC2)=NC(=O)c2ccc3c(c2)N(C[C@@H]2CC[C@H]21)C[C@@]1(CCCc2cc(Cl)ccc21)CO3 [Example 32] | 1.4 | 1480 | 
6 | CO[C@H]1/C=C/CCC[S@@](=O)(NC(=O)CCc2ccccn2)=NC(=O)c2ccc3c(c2)N(C[C@@H]2CC[C@H]21)C[C@@]1(CCCc2cc(Cl)ccc21)CO3 [Example 47] | 0.1 | 758 | 
7 | CO[C@H]1/C=C/C[C@H](C)C[S@@](=O)(NC(=O)N[C@H]2C[C@](C)(OC)C2)=NC(=O)c2ccc3c(c2)N(C[C@@H]2CC[C@H]21)C[C@@]1(CCCc2cc(Cl)ccc21)CO3 [Example 192] | 0.054 | 39.7 | 
8 | CO[C@H]1/C=C/CCC[S@@](=O)(NC(=O)CCn2ccc(C)n2)=NC(=O)c2ccc3c(c2)N(C[C@@H]2CC[C@H]21)C[C@@]1(CCCc2cc(Cl)ccc21)CO3 [Example 59] | 0.1 | 874 | 
9 | CO[C@H]1/C=C/C[C@H](C)C[S@@](=O)(NC(=O)c2ccn(C)c2)=NC(=O)c2ccc3c(c2)N(C[C@@H]2CC[C@H]21)C[C@@]1(CCCc2cc(Cl)ccc21)CO3 [Example 147] | 0.051 | 111 | 
10 | CO[C@H]1/C=C/CCC[S@@](=O)(NC(=O)NC(C)C)=NC(=O)c2ccc3c(c2)N(C[C@@H]2CC[C@H]21)C[C@@]1(CCCc2cc(Cl)ccc21)CO3 [Example 19] | 1.1 | 1080 | 
11 | COc1cn(C)nc1C(=O)O[C@H]1/C=C/[C@H](OC)[C@@H]2CC[C@H]2CN2C[C@@]3(CCCc4cc(Cl)ccc43)COc3ccc(cc32)C(=O)N=[S@](=O)(NC(=O)c2cn(C)nc2OC)CC1 [Example 391] | 0.702 |  | 4560
12 | COC(=O)N1CCn2cc(C(=O)N[S@@]3(=O)=NC(=O)c4ccc5c(c4)N(C[C@@H]4CC[C@H]4[C@@H](OC)/C=C/C[C@H](C)C3)C[C@@]3(CCCc4cc(Cl)ccc43)CO5)cc2C1 [Example 177] | 0.129 | 46.4 | 
13 | CO[C@H]1/C=C/C[C@H](C)C[S@@](=O)(NC(=O)N[C@@H]2C[C@H]2C2CCOCC2)=NC(=O)c2ccc3c(c2)N(C[C@@H]2CC[C@H]21)C[C@@]1(CCCc2cc(Cl)ccc21)CO3 [Example 181] | 0.146 | 37.9 | 
14 | CO[C@H]1/C=C/C[C@H](C)C[S@@](=O)(NC(=O)N[C@@H]2C[C@H]2c2cnn(C)c2)=NC(=O)c2ccc3c(c2)N(C[C@@H]2CC[C@H]21)C[C@@]1(CCCc2cc(Cl)ccc21)CO3 [Example 129] | 0.077 | 64.7 | 
15 | CO[C@H]1/C=C/C[C@H](C)C[S@@](=O)(NC(=O)[C@H]2C[C@H](OC)C2)=NC(=O)c2ccc3c(c2)N(C[C@@H]2CC[C@H]21)C[C@@]1(CCCc2cc(Cl)ccc21)CO3 [Example 128] | 0.068 | 96.4 | 
16 | CO[C@H]1/C=C/CCC[S@@](=O)(NC(=O)CCc2ncsc2C)=NC(=O)c2ccc3c(c2)N(C[C@@H]2CC[C@H]21)C[C@@]1(CCCc2cc(Cl)ccc21)CO3 [Example 101] | 1.4 | 2590 | 
17 | CO[C@H]1/C=C/C[C@H](C)C[S@@](=O)(NC(=O)c2cn(C)nc2Cl)=NC(=O)c2ccc3c(c2)N(C[C@@H]2CC[C@H]21)C[C@@]1(CCCc2cc(Cl)ccc21)CO3 [Example 126] | 0.099 | 123 | 
18 | COCCn1cc(C(=O)N[S@@]2(=O)=NC(=O)c3ccc4c(c3)N(C[C@@H]3CC[C@H]3[C@@H](OC)/C=C/C[C@H](C)C2)C[C@@]2(CCCc3cc(Cl)ccc32)CO4)cn1 [Example 120] | 0.167 | 106 | 
19 | CO[C@H]1/C=C/CCC[S@@](=O)(NC(=O)CCc2nccn2C)=NC(=O)c2ccc3c(c2)N(C[C@@H]2CC[C@H]21)C[C@@]1(CCCc2cc(Cl)ccc21)CO3 [Example 43] | 1.6 | 2410 | 
20 | CO[C@H]1/C=C/C[C@H](C)C[S@@](=O)(NC(=O)c2cc3ccncn3c2)=NC(=O)c2ccc3c(c2)N(C[C@@H]2CC[C@H]21)C[C@@]1(CCCc2cc(Cl)ccc21)CO3 [Example 163] | 0.263 | 98.7 | 
21 | CO[C@H]1/C=C/CCC[S@@](=O)(NC(=O)CCc2nccs2)=NC(=O)c2ccc3c(c2)N(C[C@@H]2CC[C@H]21)C[C@@]1(CCCc2cc(Cl)ccc21)CO3 [Example 91] | 0.1 | 616 | 
22 | CO[C@H]1/C=C/C[C@H](C)C[S@@](=O)(NC(=O)c2cc3n(c2)C[C@H](C)OC3)=NC(=O)c2ccc3c(c2)N(C[C@@H]2CC[C@H]21)C[C@@]1(CCCc2cc(Cl)ccc21)CO3 [Example 167] | 0.141 | 58.6 | 
23 | CO[C@H]1/C=C/CCC[S@@](=O)(NC(=O)CCc2nnc(C)o2)=NC(=O)c2ccc3c(c2)N(C[C@@H]2CC[C@H]21)C[C@@]1(CCCc2cc(Cl)ccc21)CO3 [Example 60] | 0.2 | 1090 | 

Further lines, results first:

Row | IC50 [1] [nM] | EC50 (SKBR3 cells; Homo sapiens, SK-BR-3, 72 h) [nM] | EC50 (SKBR3 cells; 72 hours) [nM] | Structure (SMILES)
24 | 0.055 | 75.6 |  | CO[C@@H]1CCN(C(=O)N[S@@]2(=O)=NC(=O)c3ccc4c(c3)N(C[C@@H]3CC[C@H]3[C@@H](OC)/C=C/C[C@H](C)C2)C[C@@]2(CCCc3cc(Cl)ccc32)CO4)C1 [Example 350]
25 | 0.187 | 162 |  | CO[C@H]1/C=C/C[C@H](C)C[S@@](=O)(NC(=O)Nc2ccnc(C)c2)=NC(=O)c2ccc3c(c2)N(C[C@@H]2CC[C@H]21)C[C@@]1(CCCc2cc(Cl)ccc21)CO3 [Example 443]
26 | 0.058 | 88.8 |  | COCC1(O)CN(C(=O)N[S@@]2(=O)=NC(=O)c3ccc4c(c3)N(C[C@@H]3CC[C@H]3[C@@H](OC)/C=C/C[C@H](C)C2)C[C@@]2(CCCc3cc(Cl)ccc32)CO4)C1 [Example 268]
27 | 0.046 | 54.4 |  | CO[C@H]1/C=C/C[C@H](C)C[S@@](=O)(NC(=O)N2CC(Oc3cccnc3)C2)=NC(=O)c2ccc3c(c2)N(C[C@@H]2CC[C@H]21)C[C@@]1(CCCc2cc(Cl)ccc21)CO3 [Example 352]
28 | 0.041 | 130 |  | CO[C@H]1/C=C/C[C@H](C)C[S@@](=O)(NC(=O)c2cc3n(n2)CCCO3)=NC(=O)c2ccc3c(c2)N(C[C@@H]2CC[C@H]21)C[C@@]1(CCCc2cc(Cl)ccc21)CO3 [Example 197]
29 | 0.117 | 251 |  | CO[C@H]1/C=C/C[C@H](C)C[S@@](=O)(NC(=O)c2cn(C)nc2C(F)F)=NC(=O)c2ccc3c(c2)N(C[C@@H]2CC[C@H]21)C[C@@]1(CCCc2cc(Cl)ccc21)CO3 [Example 448]
30 | 0.043 | 104 |  | CO[C@H]1/C=C/C[C@H](C)C[S@@](=O)(NC(=O)C2CC(O)(C(F)(F)F)C2)=NC(=O)c2ccc3c(c2)N(C[C@@H]2CC[C@H]21)C[C@@]1(CCCc2cc(Cl)ccc21)CO3 (some centres unmarked) [Example 198]
31 | 0.04 | 37.6 |  | CNc1nn(C)cc1C(=O)N[S@@]1(=O)=NC(=O)c2ccc3c(c2)N(C[C@@H]2CC[C@H]2[C@@H](OC)/C=C/C[C@H](C)C1)C[C@@]1(CCCc2cc(Cl)ccc21)CO3 [Example 212]
32 | 0.04 |  | 99.2 | CO[C@H]1/C=C/C[C@H](C)C[S@@](=O)(NC(=O)N[C@@H]2C[C@H]2OC)=NC(=O)c2ccc3c(c2)N(C[C@@H]2CC[C@H]21)C[C@@]1(CCCc2cc(Cl)ccc21)CO3 (single isomer, unassigned) [Example 196]
33 | 0.078 | 171 |  | CO[C@H]1/C=C/C[C@H](C)C[S@@](=O)(NC(=O)C2CC2c2cnn(C)c2)=NC(=O)c2ccc3c(c2)N(C[C@@H]2CC[C@H]21)C[C@@]1(CCCc2cc(Cl)ccc21)CO3 (some centres unmarked) [Example 425]
34 | 0.04 | 146 |  | CO[C@H]1/C=C/C[C@H](C)C[S@@](=O)(NC(=O)N[C@H]2C[C@H]2CO)=NC(=O)c2ccc3c(c2)N(C[C@@H]2CC[C@H]21)C[C@@]1(CCCc2cc(Cl)ccc21)CO3 (single isomer, unassigned) [Example 365]
35 | 0.066 | 74.4 |  | CO[C@H]1/C=C/C[C@H](C)C[S@@](=O)(NC(=O)N[C@@H]2C[C@@H]2OC)=NC(=O)c2ccc3c(c2)N(C[C@@H]2CC[C@H]21)C[C@@]1(CCCc2cc(Cl)ccc21)CO3 [Example 318]
36 | 0.035 | 187 |  | CCn1ncc(C(=O)N[S@@]2(=O)=NC(=O)c3ccc4c(c3)N(C[C@@H]3CC[C@H]3[C@@H](OC)/C=C/C[C@H](C)C2)C[C@@]2(CCCc3cc(Cl)ccc32)CO4)n1 [Example 422]
37 | 0.085 | 392 |  | CO[C@H]1/C=C/C[C@H](C)C[S@@](=O)(NC(=O)N2CCn3cccc3C2)=NC(=O)c2ccc3c(c2)N(C[C@@H]2CC[C@H]21)C[C@@]1(CCCc2cc(Cl)ccc21)CO3 [Example 457]
